Measurements published in publication PMC12422966, “ACLY inhibition promotes tumour immunity and suppresses liver cancer” (Nature, 2025).

Target: T1, SLC27A2 (FATP2, ACSVL1) (Homo sapiens, UniProt O14975)
T1 construct: SLC27A2 (NM_003645, human tagged ORF clone) expressed in HEK293 cells
Assay: LC–MS/MS detection of EVT0185-CoA in HEK293 cells overexpressing SLC27A2, […] EVT0185
Assay type: cell-based

Compound: CC(C)(CCCCc1ccc(CCCCC(C)(C)C(=O)O)cc1)C(=O)O [EVT0185, 6-[4-(5-carboxy-5-methyl-hexyl)-phenyl]−2,2-dimethylhexanoic acid]
- LC-MS/MS detection of EVT0185-CoA in HEK293 cells overexpressing SLC27A2, 30 μM: Incubation of HEK293 cells with EVT0185 followed by mass spectrometry analysis indicated that only cells expressing SLC27A2 generated the CoA thioester
